ChEMBL document CHEMBL2406981, “Novel pyrazoline amidoxime and their 1,2,4-oxadiazole analogues: synthesis and pharmacological screening” (Bioorg Med Chem Lett, 2013)
In brackets after ≈: the same amount, converted by molar mass.

Key:
Assay type in all cases: functional
Aspergillus niger [1] = assay: Antimicrobial activity against Aspergillus niger MTCC 281 at 100 ug/ml after 24 hrs by agar disc diffusion method; conditions: MTCC 281, 24 h, read-out: DIZ
[2] = test system: Radical scavenging activity; assay: Antioxidant activity assessed as DPPH free radical scavenging activity at 50 ug/ml after 20 mins
[3] = Antioxidant activity assessed as reducing power of ferric ion at 100 ug/ml after 20 mins; set-up: scale not given: the % may be the effect or the level left
Aspergillus flavus [4] = assay: Antimicrobial activity against Aspergillus flavus MTCC 873
[5] = test system: Radical scavenging activity; assay: Antioxidant activity assessed as DPPH free radical scavenging activity at 100 ug/ml after 20 mins
Shigella flexneri [6] = assay: Antimicrobial activity against Shigella flexneri MTCC 1457
Escherichia coli [7] = assay: Antimicrobial activity against Escherichia coli MTCC 724
Klebsiella pneumoniae [8] = assay: Antimicrobial activity against Klebsiella pneumoniae MTCC 3384 at 100 ug/ml after 24 hrs by agar disc diffusion method; conditions: MTCC 3384, 24 h, read-out: DIZ
[9] = Antioxidant activity assessed as reducing power of ferric ion at 10 ug/ml after 20 mins; set-up: scale not given: the % may be the effect or the level left
[10] = Antioxidant activity against ferric chloride-induced lipid peroxidation using egg lecithin at 50 ug/ml after 1 hr
Staphylococcus aureus [11] = assay: Antimicrobial activity against Staphylococcus aureus MTCC 96 at 100 ug/ml after 24 hrs by agar disc diffusion method; conditions: MTCC 96, 24 h, read-out: DIZ
Escherichia coli [12] = assay: Antimicrobial activity against Escherichia coli MTCC 724 at 50 ug/ml after 24 hrs by agar disc diffusion method; conditions: MTCC 724, 24 h, read-out: DIZ
Staphylococcus aureus [13] = assay: Antimicrobial activity against Staphylococcus aureus MTCC 96
[14] = Antiinflammatory activity against heat-induced albumin denaturation at […] preincubated for 15 mins before heat induction by UV-vis spectrophotometer analysis
[15] = Antioxidant activity against ferric chloride-induced lipid peroxidation using egg lecithin at 100 ug/ml after 1 hr
Shigella flexneri [16] = assay: Antimicrobial activity against Shigella flexneri MTCC 1457 at 50 ug/ml after 24 hrs by agar disc diffusion method; conditions: MTCC 1457, 24 h, read-out: DIZ
Aspergillus niger [17] = assay: Antimicrobial activity against Aspergillus niger MTCC 281 at 50 ug/ml after 24 hrs by agar disc diffusion method; conditions: MTCC 281, 24 h, read-out: DIZ
Aspergillus flavus [18] = assay: Antimicrobial activity against Aspergillus flavus MTCC 873 at 50 ug/ml after 24 hrs by agar disc diffusion method; conditions: MTCC 873, 24 h, read-out: DIZ
Klebsiella pneumoniae [19] = assay: Antimicrobial activity against Klebsiella pneumoniae MTCC 3384
Shigella flexneri [20] = assay: Antimicrobial activity against Shigella flexneri MTCC 1457 at 100 ug/ml after 24 hrs by agar disc diffusion method; conditions: MTCC 1457, 24 h, read-out: DIZ
Bacillus cereus [21] = assay: Antimicrobial activity against Bacillus cereus MTCC 8372
Escherichia coli [22] = assay: Antimicrobial activity against Escherichia coli MTCC 724 at 100 ug/ml after 24 hrs by agar disc diffusion method; conditions: MTCC 724, 24 h, read-out: DIZ
[23] = Antioxidant activity against ferric chloride-induced lipid peroxidation using egg lecithin at 10 ug/ml after 1 hr
Staphylococcus aureus [24] = assay: Antimicrobial activity against Staphylococcus aureus MTCC 96 at 50 ug/ml after 24 hrs by agar disc diffusion method; conditions: MTCC 96, 24 h, read-out: DIZ
Bacillus cereus [25] = assay: Antimicrobial activity against Bacillus cereus MTCC 8372 at 100 ug/ml after 24 hrs by agar disc diffusion method; conditions: MTCC 8372, 24 h, read-out: DIZ
Klebsiella pneumoniae [26] = assay: Antimicrobial activity against Klebsiella pneumoniae MTCC 3384 at 50 ug/ml after 24 hrs by agar disc diffusion method; conditions: MTCC 3384, 24 h, read-out: DIZ
Bacillus cereus [27] = assay: Antimicrobial activity against Bacillus cereus MTCC 8372 at 50 ug/ml after 24 hrs by agar disc diffusion method; conditions: MTCC 8372, 24 h, read-out: DIZ
[28] = test system: Radical scavenging activity; assay: Antioxidant activity assessed as DPPH free radical scavenging activity at 10 ug/ml after 20 mins
Aspergillus flavus [29] = assay: Antimicrobial activity against Aspergillus flavus MTCC 873 at 100 ug/ml after 24 hrs by agar disc diffusion method; conditions: MTCC 873, 24 h, read-out: DIZ
Aspergillus niger [30] = assay: Antimicrobial activity against Aspergillus niger MTCC 281
[31] = Antioxidant activity assessed as reducing power of ferric ion at 50 ug/ml after 20 mins; set-up: scale not given: the % may be the effect or the level left

| SMILES | zone of inhibition at 100 µg/mL (Aspergillus niger [1]) [mm] | Activity [2] [%] | Activity [3] [%] | MIC (Aspergillus flavus [4]) [µg/mL] | Activity [5] [%] | MIC (Shigella flexneri [6]) [µg/mL] | MIC (Escherichia coli [7]) [µg/mL] | zone of inhibition at 100 µg/mL (Klebsiella pneumoniae [8]) [mm] | Activity [9] [%] | inhibition [10] [%] | zone of inhibition at 100 µg/mL (Staphylococcus aureus [11]) [mm] | zone of inhibition at 50 µg/mL (Escherichia coli [12]) [mm] | MIC (Staphylococcus aureus [13]) [µg/mL] | inhibition [14] [%] | inhibition [15] [%] | zone of inhibition at 50 µg/mL (Shigella flexneri [16]) [mm] | zone of inhibition at 50 µg/mL (Aspergillus niger [17]) [mm] | zone of inhibition at 50 µg/mL (Aspergillus flavus [18]) [mm] | MIC (Klebsiella pneumoniae [19]) [µg/mL] | zone of inhibition at 100 µg/mL (Shigella flexneri [20]) [mm] | also measured |
| --- | --- | --- | --- | --- | --- | --- | --- | --- | --- | --- | --- | --- | --- | --- | --- | --- | --- | --- | --- | --- | --- |
| N/C(=N\O)C1CC(c2ccc(Cl)cc2)=NN1c1ccccc1 (stereo not given) | 8 | 39 | 68 | 25 (≈ 79.4 µM) | 69 | 20 (≈ 63.5 µM) | 40 (≈ 127 µM) | 10 | 11 | 12 | 5 | 3 | 40 (≈ 127 µM) | 59.1 | 14 | 8 | 8 | 6 | 20 (≈ 63.5 µM) | 12 | MIC (Bacillus cereus [21]): 30 µg/mL (≈ 95.3 µM); zone of inhibition at 100 µg/mL (Escherichia coli [22]): 10 mm; inhibition [23]: 18%; zone of inhibition at 50 µg/mL (Staphylococcus aureus [24]): 3 mm; zone of inhibition at 100 µg/mL (Bacillus cereus [25]): 8 mm; zone of inhibition at 50 µg/mL (Klebsiella pneumoniae [26]): 8 mm; zone of inhibition at 50 µg/mL (Bacillus cereus [27]): 4 mm; Activity [28]: 29%; zone of inhibition at 100 µg/mL (Aspergillus flavus [29]): 10 mm; MIC (Aspergillus niger [30]): 20 µg/mL (≈ 63.5 µM); Activity [31]: 28% |
| Clc1ccc(-c2nc(C3CC(c4ccccc4)=NN3c3ccccc3)no2)cc1 (stereo not given) | 20 | 42 | 65 | 10 (≈ 24.9 µM) | 67 | 25 (≈ 62.4 µM) | 30 (≈ 74.8 µM) | 8 | 12 | 48 | 10 | 4 | 20 (≈ 49.9 µM) | 53.7 | 73 | 6 | 11 | 12 | 30 (≈ 74.8 µM) | 10 | MIC (Bacillus cereus [21]): 25 µg/mL (≈ 62.4 µM); zone of inhibition at 100 µg/mL (Escherichia coli [22]): 18 mm; inhibition [23]: 34%; zone of inhibition at 50 µg/mL (Staphylococcus aureus [24]): 8 mm; zone of inhibition at 100 µg/mL (Bacillus cereus [25]): 10 mm; zone of inhibition at 50 µg/mL (Klebsiella pneumoniae [26]): 5 mm; zone of inhibition at 50 µg/mL (Bacillus cereus [27]): 6 mm; Activity [28]: 23%; zone of inhibition at 100 µg/mL (Aspergillus flavus [29]): 14 mm; MIC (Aspergillus niger [30]): 10 µg/mL (≈ 24.9 µM); Activity [31]: 22% |
| COc1ccc(C2=NN(c3ccccc3)C(c3noc(-c4ccccc4)n3)C2)cc1 (stereo not given) | 18 | 36 | 64 | 25 (≈ 63.1 µM) | 51 | 25 (≈ 63.1 µM) | 25 (≈ 63.1 µM) | 8 | 11 | 40 | 12 | 6 | 55 (≈ 139 µM) | 23.3 | 62 | 7 | 10 | 7 | 25 (≈ 63.1 µM) | 8 | MIC (Bacillus cereus [21]): 45 µg/mL (≈ 114 µM); zone of inhibition at 100 µg/mL (Escherichia coli [22]): 8 mm; inhibition [23]: 26%; zone of inhibition at 50 µg/mL (Staphylococcus aureus [24]): 2 mm; zone of inhibition at 100 µg/mL (Bacillus cereus [25]): 12 mm; zone of inhibition at 50 µg/mL (Klebsiella pneumoniae [26]): 6 mm; zone of inhibition at 50 µg/mL (Bacillus cereus [27]): 3 mm; Activity [28]: 19%; zone of inhibition at 100 µg/mL (Aspergillus flavus [29]): 10 mm; MIC (Aspergillus niger [30]): 10 µg/mL (≈ 25.2 µM); Activity [31]: 20% |
| COc1ccc(C2=NN(c3ccccc3)C(c3noc(-c4ccc(OC)c(OC)c4)n3)C2)cc1 (stereo not given) | 30 | 48 | 74 | 10 (≈ 21.9 µM) | 67 | 15 (≈ 32.9 µM) | 20 (≈ 43.8 µM) | 18 | 13 | 49 | 18 | 8 | 15 (≈ 32.9 µM) | 29.9 | 76 | 10 | 16 | 16 | 20 (≈ 43.8 µM) | 24 | MIC (Bacillus cereus [21]): 10 µg/mL (≈ 21.9 µM); zone of inhibition at 100 µg/mL (Escherichia coli [22]): 16 mm; inhibition [23]: 34%; zone of inhibition at 50 µg/mL (Staphylococcus aureus [24]): 10 mm; zone of inhibition at 100 µg/mL (Bacillus cereus [25]): 16 mm; zone of inhibition at 50 µg/mL (Klebsiella pneumoniae [26]): 8 mm; zone of inhibition at 50 µg/mL (Bacillus cereus [27]): 12 mm; Activity [28]: 29%; zone of inhibition at 100 µg/mL (Aspergillus flavus [29]): 20 mm; MIC (Aspergillus niger [30]): 10 µg/mL (≈ 21.9 µM); Activity [31]: 23% |
| COc1ccc(-c2nc(C3CC(c4ccc(O)cc4)=NN3c3ccccc3)no2)cc1OC (stereo not given) | 26 | 53 | 75 | 10 (≈ 22.6 µM) | 76 | 15 (≈ 33.9 µM) | 25 (≈ 56.5 µM) | 12 | 18 | 45 | 18 | 7 | 20 (≈ 45.2 µM) | 58.5 | 73 | 10 | 18 | 14 | 25 (≈ 56.5 µM) | 18 | MIC (Bacillus cereus [21]): 15 µg/mL (≈ 33.9 µM); zone of inhibition at 100 µg/mL (Escherichia coli [22]): 12 mm; inhibition [23]: 32%; zone of inhibition at 50 µg/mL (Staphylococcus aureus [24]): 8 mm; zone of inhibition at 100 µg/mL (Bacillus cereus [25]): 16 mm; zone of inhibition at 50 µg/mL (Klebsiella pneumoniae [26]): 8 mm; zone of inhibition at 50 µg/mL (Bacillus cereus [27]): 10 mm; Activity [28]: 31%; zone of inhibition at 100 µg/mL (Aspergillus flavus [29]): 20 mm; MIC (Aspergillus niger [30]): 5 µg/mL (≈ 11.3 µM); Activity [31]: 24% |
